Laboratory results taken from the kinase profiling compilation of Christmann-Franck et al. (2016).

Assays:
Experiment in all cases: KINOMEscan competition binding
Details in all cases: compound 0.1 µM
EPHB4 (human) = EPHB4 (human) (UniProt P54760)
DCLK3 (human) = DCLK3 (human) (UniProt Q9C098)
DYRK1B (human) = DYRK1B (human) (UniProt Q9Y463)
PRKCH (human) = PRKCH (human) (UniProt P24723)
MTOR (human) = MTOR (human) (UniProt P42345)
PKN2 (human) = PKN2 (human) (UniProt Q16513)
[1] = tested on: ALK (human), Q9UM73 [C1156Y]
BUB1 (human) = BUB1 (human) (UniProt O43683)
SIK3 (human) = SIK3 (human) (UniProt Q9Y2K2)
[2] = tested on: RET (human), P07949 [V804L]
CIT (human) = CIT (human) (UniProt O14578)
[3] = biological target: JAK1 JH2 pseudokinase (human) (UniProt P23458)
SGK1 (human) = SGK1 (human) (UniProt O00141)
BMP2K (human) = BMP2K (human) (UniProt Q9NSY1)
ACVR1B (human) = ACVR1B (human) (UniProt P36896)
[4] = tested on: FLT3 (human), P36888 [D835H]
IKBKB (human) = IKBKB (human) (UniProt O14920)
IKBKE (human) = IKBKE (human) (UniProt Q14164)
EPHB6 (human) = EPHB6 (human) (UniProt O15197)
NUAK2 (human) = NUAK2 (human) (UniProt Q9H093)
ERBB2 (human) = ERBB2 (human) (UniProt P04626)
BMPR1A (human) = BMPR1A (human) (UniProt P36894)
PAK1 (human) = PAK1 (human) (UniProt Q13153)
IGF1R (human) = IGF1R (human) (UniProt P08069)
PIK3C2G (human) = PIK3C2G (human) (UniProt O75747)
MAP2K5 (human) = MAP2K5 (human) (UniProt Q13163)
MST4 (human) = MST4 (human) (UniProt Q9P289)
[5] = tested on: FLT3 (human), P36888 [N841I]
MAP3K1 (human) = MAP3K1 (human) (UniProt Q13233)
GRK7 (human) = GRK7 (human) (UniProt Q8WTQ7)
PLK2 (human) = PLK2 (human) (UniProt Q9NYY3)
EGFR (human) = EGFR (human) (UniProt P00533)
RIOK2 (human) = RIOK2 (human) (UniProt Q9BVS4)
CDK3 (human) = CDK3 (human) (UniProt Q00526)
MAP2K2 (human) = MAP2K2 (human) (UniProt P36507)
CAMK1D (human) = CAMK1D (human) (UniProt Q8IU85)
RIOK3 (human) = RIOK3 (human) (UniProt O14730)
CAMKK1 (human) = CAMKK1 (human) (UniProt Q8N5S9)
PIP5K1A (human) = PIP5K1A (human) (UniProt Q99755)
CRK2 (P.falciparum) = CRK2 (P.falciparum) (UniProt P61075)
Chain of CRK2 (P.falciparum) (P61075 whole entry, looked up): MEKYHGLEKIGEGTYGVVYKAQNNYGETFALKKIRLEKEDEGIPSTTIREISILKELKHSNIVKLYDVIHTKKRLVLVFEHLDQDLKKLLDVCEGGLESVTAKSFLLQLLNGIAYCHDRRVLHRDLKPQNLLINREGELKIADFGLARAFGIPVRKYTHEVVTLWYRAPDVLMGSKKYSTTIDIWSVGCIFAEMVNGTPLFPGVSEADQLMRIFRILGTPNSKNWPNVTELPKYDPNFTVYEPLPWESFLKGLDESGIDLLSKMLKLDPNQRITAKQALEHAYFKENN

Chain of CIT (human) (O14578 whole entry, looked up): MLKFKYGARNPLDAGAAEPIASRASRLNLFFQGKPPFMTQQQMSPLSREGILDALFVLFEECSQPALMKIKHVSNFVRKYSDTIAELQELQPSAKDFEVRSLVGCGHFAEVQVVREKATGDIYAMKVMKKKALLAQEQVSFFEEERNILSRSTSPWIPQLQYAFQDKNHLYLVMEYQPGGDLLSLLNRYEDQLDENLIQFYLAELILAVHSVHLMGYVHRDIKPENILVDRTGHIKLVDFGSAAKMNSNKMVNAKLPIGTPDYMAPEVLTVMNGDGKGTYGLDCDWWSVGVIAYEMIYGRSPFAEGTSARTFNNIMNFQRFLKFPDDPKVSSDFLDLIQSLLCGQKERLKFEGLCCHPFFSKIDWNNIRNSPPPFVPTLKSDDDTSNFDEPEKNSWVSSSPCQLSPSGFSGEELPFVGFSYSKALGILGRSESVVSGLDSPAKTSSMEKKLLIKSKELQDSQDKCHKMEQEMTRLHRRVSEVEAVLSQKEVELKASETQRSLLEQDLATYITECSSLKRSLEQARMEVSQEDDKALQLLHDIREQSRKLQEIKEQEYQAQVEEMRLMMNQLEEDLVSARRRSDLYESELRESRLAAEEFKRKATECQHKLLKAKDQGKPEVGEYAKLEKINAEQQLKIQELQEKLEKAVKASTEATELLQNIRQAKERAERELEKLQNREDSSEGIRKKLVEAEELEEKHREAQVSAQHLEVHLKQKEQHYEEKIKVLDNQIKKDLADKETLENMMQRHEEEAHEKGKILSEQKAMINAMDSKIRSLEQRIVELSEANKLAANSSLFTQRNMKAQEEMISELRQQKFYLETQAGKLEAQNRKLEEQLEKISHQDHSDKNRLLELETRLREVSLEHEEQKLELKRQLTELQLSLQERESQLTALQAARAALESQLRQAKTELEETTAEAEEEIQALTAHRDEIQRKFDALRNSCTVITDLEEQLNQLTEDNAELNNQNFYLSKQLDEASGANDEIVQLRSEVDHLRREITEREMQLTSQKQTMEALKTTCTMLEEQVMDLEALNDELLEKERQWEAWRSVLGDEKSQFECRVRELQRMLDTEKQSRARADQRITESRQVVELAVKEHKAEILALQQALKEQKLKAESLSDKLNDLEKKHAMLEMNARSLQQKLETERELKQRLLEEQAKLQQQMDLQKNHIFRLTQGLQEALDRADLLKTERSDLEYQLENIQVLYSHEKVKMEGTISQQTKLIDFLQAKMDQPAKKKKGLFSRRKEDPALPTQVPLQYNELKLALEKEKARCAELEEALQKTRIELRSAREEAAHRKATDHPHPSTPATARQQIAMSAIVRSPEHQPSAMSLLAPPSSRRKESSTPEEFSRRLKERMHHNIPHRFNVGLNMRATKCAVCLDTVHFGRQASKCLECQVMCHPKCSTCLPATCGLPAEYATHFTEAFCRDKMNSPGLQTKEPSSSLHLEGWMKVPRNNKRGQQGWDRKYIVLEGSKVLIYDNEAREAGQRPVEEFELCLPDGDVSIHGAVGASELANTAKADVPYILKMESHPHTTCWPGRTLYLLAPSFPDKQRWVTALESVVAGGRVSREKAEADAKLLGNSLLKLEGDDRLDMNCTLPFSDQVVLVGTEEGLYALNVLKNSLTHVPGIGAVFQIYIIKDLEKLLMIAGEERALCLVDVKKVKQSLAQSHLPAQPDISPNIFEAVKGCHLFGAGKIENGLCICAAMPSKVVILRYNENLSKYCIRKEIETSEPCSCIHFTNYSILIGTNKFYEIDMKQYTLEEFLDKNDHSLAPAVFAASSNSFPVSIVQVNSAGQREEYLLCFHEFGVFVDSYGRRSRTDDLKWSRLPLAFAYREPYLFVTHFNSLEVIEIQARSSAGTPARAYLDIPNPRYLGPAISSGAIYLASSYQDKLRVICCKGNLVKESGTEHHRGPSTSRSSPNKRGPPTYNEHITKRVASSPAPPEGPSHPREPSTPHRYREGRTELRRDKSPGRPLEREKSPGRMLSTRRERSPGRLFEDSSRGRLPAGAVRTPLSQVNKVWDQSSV
Chain of EGFR (human) (P00533 whole entry, looked up): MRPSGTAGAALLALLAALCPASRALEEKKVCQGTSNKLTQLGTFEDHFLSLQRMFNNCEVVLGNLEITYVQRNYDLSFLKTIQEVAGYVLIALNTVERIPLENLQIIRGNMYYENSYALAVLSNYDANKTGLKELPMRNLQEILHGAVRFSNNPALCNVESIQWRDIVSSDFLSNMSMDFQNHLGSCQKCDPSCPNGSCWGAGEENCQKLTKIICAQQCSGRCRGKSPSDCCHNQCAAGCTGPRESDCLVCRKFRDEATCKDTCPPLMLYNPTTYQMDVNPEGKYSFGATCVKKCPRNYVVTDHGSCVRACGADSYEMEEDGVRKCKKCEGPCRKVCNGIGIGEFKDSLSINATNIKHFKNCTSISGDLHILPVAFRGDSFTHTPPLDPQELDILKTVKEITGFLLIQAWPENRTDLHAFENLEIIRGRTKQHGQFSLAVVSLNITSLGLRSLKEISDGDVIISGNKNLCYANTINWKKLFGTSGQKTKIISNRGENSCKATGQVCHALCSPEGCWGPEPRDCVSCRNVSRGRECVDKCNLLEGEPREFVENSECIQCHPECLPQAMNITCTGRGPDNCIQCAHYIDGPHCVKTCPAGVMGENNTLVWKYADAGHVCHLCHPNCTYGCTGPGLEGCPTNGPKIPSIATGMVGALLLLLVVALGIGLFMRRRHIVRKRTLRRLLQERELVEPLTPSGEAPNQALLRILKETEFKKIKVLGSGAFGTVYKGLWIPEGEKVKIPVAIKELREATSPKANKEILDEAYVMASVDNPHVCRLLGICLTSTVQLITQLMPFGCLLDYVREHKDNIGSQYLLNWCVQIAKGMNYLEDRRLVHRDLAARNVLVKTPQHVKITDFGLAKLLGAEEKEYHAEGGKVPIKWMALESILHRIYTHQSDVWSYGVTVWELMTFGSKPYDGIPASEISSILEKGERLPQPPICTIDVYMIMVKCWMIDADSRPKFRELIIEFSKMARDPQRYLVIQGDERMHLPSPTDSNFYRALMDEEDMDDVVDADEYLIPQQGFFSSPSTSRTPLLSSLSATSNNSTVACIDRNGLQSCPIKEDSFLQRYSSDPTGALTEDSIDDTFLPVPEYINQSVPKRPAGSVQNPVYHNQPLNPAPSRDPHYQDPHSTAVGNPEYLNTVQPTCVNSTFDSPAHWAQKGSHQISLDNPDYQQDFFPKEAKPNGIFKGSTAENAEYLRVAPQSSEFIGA
Chain of IGF1R (human) (P08069 whole entry, looked up): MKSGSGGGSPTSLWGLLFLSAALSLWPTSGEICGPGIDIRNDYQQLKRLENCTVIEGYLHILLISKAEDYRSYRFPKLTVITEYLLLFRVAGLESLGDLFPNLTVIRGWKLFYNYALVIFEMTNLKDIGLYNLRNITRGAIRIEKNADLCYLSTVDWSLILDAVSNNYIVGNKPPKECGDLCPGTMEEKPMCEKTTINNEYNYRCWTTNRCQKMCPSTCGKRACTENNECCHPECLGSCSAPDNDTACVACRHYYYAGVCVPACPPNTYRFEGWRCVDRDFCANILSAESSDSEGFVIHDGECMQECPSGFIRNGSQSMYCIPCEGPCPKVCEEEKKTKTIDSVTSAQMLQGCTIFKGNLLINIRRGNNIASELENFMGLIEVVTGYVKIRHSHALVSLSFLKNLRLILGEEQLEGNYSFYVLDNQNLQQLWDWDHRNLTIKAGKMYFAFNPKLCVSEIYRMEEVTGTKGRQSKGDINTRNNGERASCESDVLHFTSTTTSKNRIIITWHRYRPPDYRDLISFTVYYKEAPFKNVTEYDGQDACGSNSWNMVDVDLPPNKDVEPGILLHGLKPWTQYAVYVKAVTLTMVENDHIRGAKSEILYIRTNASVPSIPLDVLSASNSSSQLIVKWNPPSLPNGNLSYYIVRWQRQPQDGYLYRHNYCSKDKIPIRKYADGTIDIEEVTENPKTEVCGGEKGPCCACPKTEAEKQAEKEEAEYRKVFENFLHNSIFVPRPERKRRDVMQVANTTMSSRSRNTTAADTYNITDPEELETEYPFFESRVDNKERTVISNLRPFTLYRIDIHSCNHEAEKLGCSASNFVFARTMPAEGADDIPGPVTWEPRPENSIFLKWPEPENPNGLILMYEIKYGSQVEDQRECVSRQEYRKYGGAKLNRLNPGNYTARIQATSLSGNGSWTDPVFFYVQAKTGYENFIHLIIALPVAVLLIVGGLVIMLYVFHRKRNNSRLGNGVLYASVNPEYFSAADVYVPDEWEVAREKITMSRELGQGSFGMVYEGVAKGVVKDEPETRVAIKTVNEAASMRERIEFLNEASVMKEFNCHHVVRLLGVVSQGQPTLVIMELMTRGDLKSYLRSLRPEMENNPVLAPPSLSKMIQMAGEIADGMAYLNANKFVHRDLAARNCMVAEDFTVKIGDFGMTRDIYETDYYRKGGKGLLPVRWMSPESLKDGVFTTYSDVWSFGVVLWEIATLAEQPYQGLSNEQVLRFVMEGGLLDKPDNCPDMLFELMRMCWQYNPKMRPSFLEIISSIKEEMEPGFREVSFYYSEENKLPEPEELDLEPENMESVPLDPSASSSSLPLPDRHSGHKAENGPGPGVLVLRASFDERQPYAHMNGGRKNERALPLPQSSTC

How did the kinase still bound, per cent of control (EPHB4 (human)) turn out when `CCc1ccc(C(=O)Nc2cc(CN3CCN(C)CC3)cc(C(F)(F)F)c2)cc1C#Cc1cnc2ccnn2c1` was run?
Its kinase still bound, per cent of control is 100%.

What about the kinase still bound, per cent of control (DCLK3 (human)) of the same compound?
The kinase still bound, per cent of control was 100%.

What about the kinase still bound, per cent of control (DYRK1B (human)) of the same compound?
Its kinase still bound, per cent of control is 53%.

And the kinase still bound, per cent of control (PRKCH (human))?
The kinase still bound, per cent of control was 100%.

And the kinase still bound, per cent of control (MTOR (human))?
Its kinase still bound, per cent of control is 100%.

And the kinase still bound, per cent of control (PKN2 (human))?
The kinase still bound, per cent of control was 74%.

What about the kinase still bound, per cent of control [1] of the same compound?
Its kinase still bound, per cent of control is 97%.

And the kinase still bound, per cent of control (BUB1 (human))?
Its kinase still bound, per cent of control is 100%.

And the kinase still bound, per cent of control (SIK3 (human))?
Its kinase still bound, per cent of control is 100%.

And the kinase still bound, per cent of control [2]?
Its kinase still bound, per cent of control is 86%.

And the kinase still bound, per cent of control (CIT (human))?
The kinase still bound, per cent of control was 92%.

What about the kinase still bound, per cent of control [3] of the same compound?
The kinase still bound, per cent of control was 100%.

What about the kinase still bound, per cent of control (SGK1 (human)) of the same compound?
Its kinase still bound, per cent of control is 93%.

And the kinase still bound, per cent of control (BMP2K (human))?
The kinase still bound, per cent of control was 86%.

And the kinase still bound, per cent of control (ACVR1B (human))?
The kinase still bound, per cent of control was 100%.

What about the kinase still bound, per cent of control [4] of the same compound?
Its kinase still bound, per cent of control is 83%.

And the kinase still bound, per cent of control (IKBKB (human))?
Its kinase still bound, per cent of control is 97%.

What about the kinase still bound, per cent of control (IKBKE (human)) of the same compound?
The kinase still bound, per cent of control was 100%.

And the kinase still bound, per cent of control (EPHB6 (human))?
Its kinase still bound, per cent of control is 100%.

What about the kinase still bound, per cent of control (NUAK2 (human)) of the same compound?
The kinase still bound, per cent of control was 100%.

What about the kinase still bound, per cent of control (ERBB2 (human)) of the same compound?
Its kinase still bound, per cent of control is 61%.

And the kinase still bound, per cent of control (BMPR1A (human))?
Its kinase still bound, per cent of control is 100%.

And the kinase still bound, per cent of control (PAK1 (human))?
Its kinase still bound, per cent of control is 75%.

And the kinase still bound, per cent of control (IGF1R (human))?
The kinase still bound, per cent of control was 100%.

What about the kinase still bound, per cent of control (PIK3C2G (human)) of the same compound?
The kinase still bound, per cent of control was 100%.

And the kinase still bound, per cent of control (MAP2K5 (human))?
The kinase still bound, per cent of control was 100%.

What about the kinase still bound, per cent of control (MST4 (human)) of the same compound?
Its kinase still bound, per cent of control is 100%.

And the kinase still bound, per cent of control [5]?
The kinase still bound, per cent of control was 100%.

What about the kinase still bound, per cent of control (MAP3K1 (human)) of the same compound?
Its kinase still bound, per cent of control is 100%.

And the kinase still bound, per cent of control (GRK7 (human))?
Its kinase still bound, per cent of control is 100%.

And the kinase still bound, per cent of control (PLK2 (human))?
The kinase still bound, per cent of control was 100%.

What about the kinase still bound, per cent of control (EGFR (human)) of the same compound?
The kinase still bound, per cent of control was 100%.

What about the kinase still bound, per cent of control (RIOK2 (human)) of the same compound?
The kinase still bound, per cent of control was 100%.

And the kinase still bound, per cent of control (CDK3 (human))?
Its kinase still bound, per cent of control is 100%.

And the kinase still bound, per cent of control (MAP2K2 (human))?
Its kinase still bound, per cent of control is 100%.

What about the kinase still bound, per cent of control (CAMK1D (human)) of the same compound?
Its kinase still bound, per cent of control is 84%.

And the kinase still bound, per cent of control (RIOK3 (human))?
The kinase still bound, per cent of control was 64%.

And the kinase still bound, per cent of control (CAMKK1 (human))?
Its kinase still bound, per cent of control is 69%.

And the kinase still bound, per cent of control (PIP5K1A (human))?
The kinase still bound, per cent of control was 100%.

What about the kinase still bound, per cent of control (CRK2 (P.falciparum)) of the same compound?
Its kinase still bound, per cent of control is 100%.
